≈ marks a conversion by molar mass, not a printed value.
Experiments:
Format in all cases: functional
Staphylococcus aureus [1] = assay: Antibacterial activity against Staphylococcus aureus 209P JC1 by agar dilution method
Staphylococcus aureus [2] = assay: Antibacterial activity against methicillin-resistant Staphylococcus aureus M126 by agar dilution method
Staphylococcus aureus [3] = assay: Antibacterial activity against carbapenem and methicillin-resistant Staphylococcus aureus M126HR by agar dilution method
Streptococcus pneumoniae = assay: Antibacterial activity against penicillin-resistant Streptococcus pneumoniae KK133 by agar dilution method
Escherichia coli = assay: Antibacterial activity against Escherichia coli NIHJ JC2 by agar dilution method
Klebsiella pneumoniae = assay: Antibacterial activity against Klebsiella pneumoniae GN69 by agar dilution method
Moraxella catarrhalis = assay: Antibacterial activity against Moraxella catarrhalis W-0500 by agar dilution method
Haemophilus influenzae = assay: Antibacterial activity against beta-lactamase-negative ampicillin-resistant Haemophilus influenzae 870 by agar dilution method

C[C@@H](O)[C@H]1C(=O)N2C(C(=O)O)=C(c3cn4cnc(C(=O)C5CCCCN5)c4s3)[C@H](C)[C@H]12 (stereo partly drawn)
MIC (Staphylococcus aureus [1]): 0.016 µg/mL (≈ 0.036 µM) | MIC (Staphylococcus aureus [2]): 1 µg/mL (≈ 2.25 µM) | MIC (Staphylococcus aureus [3]): 4 µg/mL (≈ 9 µM) | MIC (Streptococcus pneumoniae): 0.125 µg/mL (≈ 0.281 µM) | MIC (Escherichia coli): 0.125 µg/mL (≈ 0.281 µM) | MIC (Klebsiella pneumoniae): 0.25 µg/mL (≈ 0.562 µM) | MIC (Moraxella catarrhalis): 0.063 µg/mL (≈ 0.142 µM) | MIC (Haemophilus influenzae): 0.25 µg/mL (≈ 0.562 µM)

Source: ChEMBL document CHEMBL1144513, “Synthesis and SAR study of novel 7-(pyridinium-3-yl)-carbonyl imidazo[5,1-b]thiazol-2-yl carbapenems” (2007)
